In US11491162B2, “Combination of quinoline-4-carboxamides and benzonaphthyridine derivatives as antimalarial drug combination” (Merck Patent GmbH, priority 2018, dated 2022):
Where “and” joins values, the source holds several entries; their conditions need not be identical. Equal entries are not always repeated. Structures can show the parent of a compound that is named as a salt. Where two headings read alike, the source gives them in different places.

How the values were obtained:
Caco-2 cells = test: In vitro permeability in Caco-2 cells; type: in vitro ADME; details: pH 7.4/7.4, Table 8
Procedure: (§1) Caco-2 cells are maintained in DMEM in an atmosphere of 8.5% CO2. For transport experiments 0.125×10^6 cells/well of are seeded on polycarbonate filter inserts and are allowed to grow and differentiate for 14±1 days before the cell monolayers are used for experiments. Drug transport experiments are carried out using a cocktail approach in a four-dimensional setting. […] […] The assays are performed in HBSS containing 25 mM HEPES (pH 7.4) in an atmosphere of 5% CO2 at 37° C. Prior to the study, the monolayers are washed in pre-warmed HBSS. At the start of the experiments pre-warmed HBSS containing the test items is added to the donor side of the monolayer and HBSS without test items is added to the receiver side. The plates are shaken at 150 rpm at 37° C. during the experiment. After 2 h the Transwell insert containing the monolayer is carefully removed and placed in a new plate and aliquots of both the receiver and donor sides were taken and diluted with an equal volume of acetonitrile containing the internal standard. The mixture is centrifuged and supernatant analyzed by LC-MS/MS. The apparent permeability coefficients (Papp) are calculated using the formula: Papp=[Vrec/(A×C0,donor)](dCrec/dt)×10^6 with dCrev/dt being the change in concentration in the receiver compartment with time, Vrec the volume of the sample in the receiver compartment, C0, donor the concentration in the donor compartment at time 0, and A the area of the compartment with the cells.

[1] = In vitro permeability in Caco-2 cells; type: in vitro ADME; details: human
Procedure: as §1

[2] = test system: P. falciparum Pf3D7^0087/N9; test: In vivo SCID mouse model, oral therapeutic efficacy; parameters: species or system Plasmodium falciparum; details: for % control: day 7; for Activity: day 7 vs untreated control, succinate salt
Procedure: Compound efficacy was assessed against the Plasmodium falciparum strain Pf3D7^0087/N9 in vivo. Mice are infected intravenously with parasitized red blood cells on day 0. Experimental mice are generally treated at day 3, 4, 5, and 6 post-infection with an oral dose of the compound (single or 4-day oral dosing regimen) and are compared to an infected control group for reduction in parasitemia on day 7 (Maria Belen Jimenez-Díaz, Teresa Mulet, Sara Viera, Vanessa Gomez, Helen Garuti, Javier Ibanez, Angela Alvarez-Doval, Leonard D. Shultz, Antonio Martínez, Domingo Gargallo-Viola, and Inigo Angulo-Barturen, Improved Murine Model of Malaria Using Plasmodium falciparum Competent Strains and Non-Myelodepleted NOD-scid IL2Rgammanull Mice Engrafted with Human Erythrocytes, Antimicrob Agents Chemother. 2009, 53:4533).
PYRO and M1 were solubilized in a vehicle consisting of 70% Tween-80 and 30% ethanol, followed by a 10-fold dilution in H2O.

[3] = M1 4 × 0.2 MG/KG oral, SCID mice, Table 3
[4] = M1 4 × 0.4 MG/KG oral, SCID mice, Table 3
[5] = M1 4 × 0.6 MG/KG oral, SCID mice, Table 3
[6] = M1 4 × 1.2 MG/KG oral, SCID mice, Table 3
[7] = Table 4 entry 2: M1 4 × 1.2 mg/kg, PYRO 0 mg/kg, oral

O=C(NCCN1CCCC1)c1cc(-c2ccc(CN3CCOCC3)cc2)nc2ccc(F)cc12 [M1, 6-fluoro-2-(4-morpholin-4-ylmethyl-phenyl)-quinoline-4-carboxylic acid (2-pyrrolidin-1-yl-ethyl)amide succinate salt]
PAPP (A-B) (Caco-2 cells; PYRO 0 μM): 2.00 10E−6 CM/S | PAPP (B-A) (Caco-2 cells; PYRO 0.3 μM): 30.90 10E−6 CM/S | PAPP (A-B) (Caco-2 cells; PYRO 100 μM): 19.3 10E−6 CM/S | efflux ratio at 2 h, 1 μM ([1]; Caco-2, pH 7.4, PYRO 0 μM, pH 7.4/7.4, Table 8): 15.4 | efflux ratio at 2 h, 1 μM ([1]; Caco-2, pH 7.4, no P-gp inhibitor, pH 7.4/7.4, Table 7): 18.2 | recovery at 2 h, 1 μM ([1]; Caco-2, pH 7.4, no P-gp inhibitor, pH 7.4/7.4, Table 7, read-out: RECOVERY apical to basolateral (A-B)): 79.8% | recovery at 2 h, 1 μM ([1]; Caco-2, pH 7.4, no P-gp inhibitor, pH 7.4/7.4, Table 7, read-out: RECOVERY basolateral to apical (B-A)): 65.4% | recovery at 2 h, 1 μM ([1]; Caco-2, pH 7.4, with Cyclosporine A 10 μM, with Cyclosporine A 10 μM, pH 7.4/7.4, Table 7, read-out: RECOVERY apical to basolateral (A-B)): 72.5% | recovery at 2 h, 1 μM ([1]; Caco-2, pH 7.4, with Cyclosporine A 10 μM, with Cyclosporine A 10 μM, pH 7.4/7.4, Table 7, read-out: RECOVERY basolateral to apical (B-A)): 86.3% | efflux ratio at 2 h, 1 μM ([1]; Caco-2, pH 7.4, with PYRO 0.3 μM, PYRO 0.3 μM, pH 7.4/7.4, Table 8): 10.1 | efflux ratio at 2 h, 1 μM ([1]; Caco-2, pH 7.4, with PYRO 1 μM, PYRO 1 μM, pH 7.4/7.4, Table 8): 14.5 | efflux ratio at 2 h, 1 μM ([1]; Caco-2, pH 7.4, with PYRO 3 μM, PYRO 3 μM, pH 7.4/7.4, Table 8): 10.2 | efflux ratio at 2 h, 1 μM ([1]; Caco-2, pH 7.4, with PYRO 10 μM, PYRO 10 μM, pH 7.4/7.4, Table 8): 11 | efflux ratio at 2 h, 1 μM ([1]; Caco-2, pH 7.4, with PYRO 30 μM, PYRO 30 μM, pH 7.4/7.4, Table 8): 5.06 | efflux ratio at 2 h, 1 μM ([1]; Caco-2, pH 7.4, with PYRO 100 μM, PYRO 100 μM, pH 7.4/7.4, Table 8): 2.42 | Papp at 2 h, 1 μM ([1]; Caco-2, with PYRO 0.3 μM, PYRO 0.3 μM, pH 7.4/7.4, Table 8): 9.74 ×10⁻⁶ cm/s | Papp A→B at 2 h, 1 μM ([1]; Caco-2, with PYRO 0.3 μM, PYRO 0.3 μM, pH 7.4/7.4, Table 8, read-out: PAPP (A-B)): 3.07 ×10⁻⁶ cm/s | Papp at 2 h, 1 μM ([1]; Caco-2, with PYRO 1 μM, PYRO 1 μM, pH 7.4/7.4, Table 8): 8.25 ×10⁻⁶ cm/s | Papp A→B at 2 h, 1 μM ([1]; Caco-2, with PYRO 1 μM, PYRO 1 μM, pH 7.4/7.4, Table 8, read-out: PAPP (A-B)): 2.17 ×10⁻⁶ cm/s | Papp B→A at 2 h, 1 μM ([1]; Caco-2, with PYRO 1 μM, PYRO 1 μM, pH 7.4/7.4, Table 8, read-out: PAPP (B-A)): 31.4 ×10⁻⁶ cm/s | Papp at 2 h, 1 μM ([1]; Caco-2, with PYRO 3 μM, PYRO 3 μM, pH 7.4/7.4, Table 8): 12.3 ×10⁻⁶ cm/s | Papp A→B at 2 h, 1 μM ([1]; Caco-2, with PYRO 3 μM, PYRO 3 μM, pH 7.4/7.4, Table 8, read-out: PAPP (A-B)): 3.85 ×10⁻⁶ cm/s | Papp B→A at 2 h, 1 μM ([1]; Caco-2, with PYRO 3 μM, PYRO 3 μM, pH 7.4/7.4, Table 8, read-out: PAPP (B-A)): 39.1 ×10⁻⁶ cm/s | Papp at 2 h, 1 μM ([1]; Caco-2, with PYRO 10 μM, PYRO 10 μM, pH 7.4/7.4, Table 8): 11.3 ×10⁻⁶ cm/s | Papp A→B at 2 h, 1 μM ([1]; Caco-2, with PYRO 10 μM, PYRO 10 μM, pH 7.4/7.4, Table 8, read-out: PAPP (A-B)): 3.42 ×10⁻⁶ cm/s | Papp B→A at 2 h, 1 μM ([1]; Caco-2, with PYRO 10 μM, PYRO 10 μM, pH 7.4/7.4, Table 8, read-out: PAPP (B-A)): 37.6 ×10⁻⁶ cm/s | Papp at 2 h, 1 μM ([1]; Caco-2, with PYRO 30 μM, PYRO 30 μM, pH 7.4/7.4, Table 8): 16.4 ×10⁻⁶ cm/s | Papp A→B at 2 h, 1 μM ([1]; Caco-2, with PYRO 30 μM, PYRO 30 μM, pH 7.4/7.4, Table 8, read-out: PAPP (A-B)): 7.29 ×10⁻⁶ cm/s | Papp B→A at 2 h, 1 μM ([1]; Caco-2, with PYRO 30 μM, PYRO 30 μM, pH 7.4/7.4, Table 8, read-out: PAPP (B-A)): 36.9 ×10⁻⁶ cm/s | Papp at 2 h, 1 μM ([1]; Caco-2, with PYRO 100 μM, PYRO 100 μM, pH 7.4/7.4, Table 8): 30 ×10⁻⁶ cm/s | Papp A→B at 2 h, 1 μM ([1]; Caco-2, with PYRO 100 μM, PYRO 100 μM, pH 7.4/7.4, Table 8, read-out: PAPP (A-B)): 19.3 ×10⁻⁶ cm/s | Papp B→A at 2 h, 1 μM ([1]; Caco-2, with PYRO 100 μM, PYRO 100 μM, pH 7.4/7.4, Table 8, read-out: PAPP (B-A)): 46.7 ×10⁻⁶ cm/s | Papp at 2 h, 1 μM ([1]; Caco-2, with none (PYRO 0 μM), PYRO 0 μM, pH 7.4/7.4, Table 8): 7.8 ×10⁻⁶ cm/s | Papp A→B at 2 h, 1 μM ([1]; Caco-2, with none (PYRO 0 μM), PYRO 0 μM, pH 7.4/7.4, Table 8, read-out: PAPP (A-B)): 2 ×10⁻⁶ cm/s | Papp B→A at 2 h, 1 μM ([1]; Caco-2, with none (PYRO 0 μM), PYRO 0 μM, pH 7.4/7.4, Table 8, read-out: PAPP (B-A)): 30.6 ×10⁻⁶ cm/s | Papp A→B at 2 h, 1 μM ([1]; Caco-2, with none (no P-gp inhibitor), no P-gp inhibitor, pH 7.4/7.4, Table 7, read-out: PAPP apical to basolateral (A-B)): 2.97 ×10⁻⁶ cm/s | Papp B→A at 2 h, 1 μM ([1]; Caco-2, with none (no P-gp inhibitor), no P-gp inhibitor, pH 7.4/7.4, Table 7, read-out: PAPP basolateral to apical (B-A)): 54.2 ×10⁻⁶ cm/s | % PARASITEMIA day 3 post infection [2, 3]: 0.85% | % PARASITEMIA day 4 post infection [2, 3]: 1.33% | % PARASITEMIA day 5 post infection [2, 3]: 3.10% | % PARASITEMIA day 6 post infection [2, 3]: 3.35% | % PARASITEMIA day 7 post infection [2, 3]: 6.55% | % control ([2]; M1 4 × 0.2 MG/KG oral, SCID mice): 71.7% | Activity ([2]; M1 4 × 0.2 MG/KG oral, SCID mice, 0.2 mg/kg): 28.3% | % PARASITEMIA day 3 post infection [2, 4]: 0.70% | % PARASITEMIA day 4 post infection [2, 4]: 1.38% | % PARASITEMIA day 5 post infection [2, 4]: 1.18% | % PARASITEMIA day 6 post infection [2, 4]: 0.75% | % PARASITEMIA day 7 post infection [2, 4]: 0.55% | % control ([2]; M1 4 × 0.4 MG/KG oral, SCID mice): 6.0% | Activity ([2]; M1 4 × 0.4 MG/KG oral, SCID mice, 0.4 mg/kg): 94.9% and 94.0% | % PARASITEMIA day 3 post infection [2, 5]: 0.63% | % PARASITEMIA day 4 post infection [2, 5]: 0.70% | % PARASITEMIA day 5 post infection [2, 5]: 0.60% | % PARASITEMIA day 6 post infection [2, 5]: 0.13% | % PARASITEMIA day 7 post infection [2, 5]: 0.03% | % control ([2]; M1 4 × 0.6 MG/KG oral, SCID mice): 0.3% | Activity ([2]; M1 4 × 0.6 MG/KG oral, SCID mice, 0.6 mg/kg): 99.7% | % PARASITEMIA day 3 post infection [2, 6]: 0.50% | % PARASITEMIA day 4 post infection [2, 6]: 0.75% | % PARASITEMIA day 5 post infection [2, 6]: 0.43% | % PARASITEMIA day 6 post infection [2, 6]: 0.05% | % PARASITEMIA day 7 post infection ([2]; M1 4 × 1.2 MG/KG oral, SCID mice, Table 3, LLQ = <0.01% parasitemia): <LLQ | % control ([2]; M1 4 × 1.2 MG/KG oral, SCID mice, LLQ = <0.01% parasitemia): <LLQ | Activity ([2]; M1 4 × 1.2 MG/KG oral, SCID mice, 1.2 mg/kg): 100% | ED90 ([2]; M1, 4-day oral dosing, SCID mice, dose as free base): 0.37 mg/kg | % PARASITEMIA day 3 post infection [2, 7]: 0.99% | % PARASITEMIA day 4 post infection [2, 7]: 1.04% | % PARASITEMIA day 5 post infection [2, 7]: 0.7% | % PARASITEMIA day 6 post infection [2, 7]: 0.12% | % PARASITEMIA day 7 post infection [2, 7]: 0.01% | % PARASITEMIA day 10 post infection ([2]; Table 4 entry 2: M1 4 × 1.2 mg/kg, PYRO 0 mg/kg, oral, LLQ = <0.01% parasitemia): <LLQ
